Results on 53 compounds are retold here after patent US20210300908A1, “S1P1 AGONIST AND APPLICATION THEREOF” (SHIJIAZHUANG SAGACITY SRUG SEVELOPMENT CO., LTD., priority 2016, published 2021).

Broadly, the EC50 is the concentration at which the effect is half-maximal. High values mean a less potent agent, low ones a more potent agent. A word on the bioavailability: it is the share of a dose that reaches the circulation, judged against a reference dose that is usually intravenous.

The target in one data set is S1P1 receptor (Homo sapiens, UniProt P21453). The experiment in a line: S1P1 receptor agonistic activity (PathHunter cell strain, chemiluminescent signal detection). It counts as cell-based. The following applies: PathHunter cells, agonist mode, 37° C. 90-180 minutes. The method, then: Test Method: […] Cell Processing i) Thaw the PathHunter cell strain according to the standard procedures. ii) Seed the cell in the 20 μL 384-microwell plate and incubate at 37° C. for an appropriate period. 2. Agonist i) For agonist testing, cells were incubated with the sample to be test to initiate a reaction; ii) The stock solution to be tested has been diluted 5 folds to be a buffer solution; iii) Inject the 5-fold diluted solution (5 μL) into the cells and incubate at 37° C. for 90-180 minutes. […] 3. Signal Detection i) Add 12.5 μL or 15 μL PathHunter detection reagent (50 vol. %) in one portion. Then, incubate at room temperature for 1 hour and generate the detection signal; ii) Use PerkinElmer Evision™ instrument to read the microwell plate to proceed with chemiluminescent signal detection. 4. Data Analysis i) Use CBIS data analysis system for the compound activity analysis. ii) Calculation formula: […]

Data set [1] in a line: Evaluation of compound pharmacokinetics in SD rats (intravenous injection and oral administration). The format is in vivo. The following applies: male, Sprague Dawley, rat, plasma, 2 mg/kg, 2 mpk; for clearance: read-out: Clearance rate; for AUC: read-out: Drug concentration integral: AUC; for half-life: read-out: Half-life period: T1/2 (converted); for bioavailability: oral, read-out: Fraction of bioavailability: F. As to the method:
Aim of the experiments: To test pharmacokinetics of the compounds in SD rats. Experimental Materials: Sprague Dawley rats (male, 200-300 g, 7-9 weeks old, Shanghai Slack) Experimental Procedure: The rodent pharmacokinetic characteristics of the compounds after intravenous injection and oral administration were tested by the standard protocol. In the experiments, the transparent solution was prepared with the compounds to be test. The rats were administered single intravenous injection and oral administration. The solvent for intravenous injection and oral administration was aqueous hydroxypropyl β-cyclodextrin solution or normal saline solution with a certain concentration. Collect the blood samples within 24 hours and centrifuge at 3000 G for 15 minutes. Separate the supernatant to obtain the plasma samples. A volume of acetonitrile solution containing internal standard was added 4 times as the sample to precipitate the protein. The supernatant was obtained after centrifuge. An equal volume of water was added and then centrifuge again to collect the supernatant. The LC-MS/MS method was used to quantitatively analyze the blood drug concentration and the pharmacokinetic parameters such as peak concentration, peak time, clearance rate, half-life period, area under the curve of the drug concentration, and fraction of bioavailability, etc. were calculated.

Molecules are shown by their SMILES.

S1P1 receptor, sequence (P21453 whole entry): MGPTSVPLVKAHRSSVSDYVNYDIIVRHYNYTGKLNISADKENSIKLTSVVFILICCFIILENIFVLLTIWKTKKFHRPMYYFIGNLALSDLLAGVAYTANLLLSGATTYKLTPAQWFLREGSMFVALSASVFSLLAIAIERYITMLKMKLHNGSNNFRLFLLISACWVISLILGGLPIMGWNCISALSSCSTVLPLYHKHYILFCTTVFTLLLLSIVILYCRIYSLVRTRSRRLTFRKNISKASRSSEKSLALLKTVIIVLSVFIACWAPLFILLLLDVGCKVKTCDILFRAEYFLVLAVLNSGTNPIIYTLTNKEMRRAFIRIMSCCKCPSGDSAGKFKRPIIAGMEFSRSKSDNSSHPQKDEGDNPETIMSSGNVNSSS

As for `CC(C)Oc1ccc(-c2nc(-c3cccc4c3C[C@@H]3OC(=O)N(CCO)[C@H]43)no2)cc1C#N` (relative stereo) [Example 50], at S1P1 receptor, the EC50 was below 10 nM. Also, in data set [1], the clearance worked out at 6.59 mL/min/kg, the AUC was determined as 8.52 µM·h, the half-life was 4.82 h and the bioavailability was found to be 72.4%.
`CC(C)Oc1ccc(-c2nc(-c3cccc4c3CC3CC(=O)N(CCO)C43)no2)cc1C#N` (stereo not drawn) [Example 1 Mixture] showed an EC50 on S1P1 receptor below 10 nM.
At S1P1 receptor, `CC(C)Oc1ccc(-c2ncc(-c3cccc4c3CC3CC(=O)N(CCO)C43)s2)cc1C#N` (stereo not drawn) [Example 2] registered an EC50 below 10 nM.
On S1P1 receptor, `CC(C)Oc1ccc(-c2nnc(-c3cccc4c3CC3CC(=O)N(CCO)C43)s2)cc1C#N` (stereo not drawn) [Example 3] displayed an EC50 below 10 nM.
Same read-out and setting: as for `CC(C)Oc1ccc(-c2ncc(-c3cccc4c3CC3CC(=O)N(CCO)C43)o2)cc1C#N` (stereo not drawn) [Example 4], the figure is below 10 nM; as for `CC(C)Oc1ccc(-c2ccc(-c3cccc4c3CC3CC(=O)N(CCO)C43)s2)cc1C#N` (stereo not drawn) [Example 5], below 10 nM; as for `CC(C)Oc1ccc(-c2nc(-c3cccc4c3CC3CC(=O)N(CCO)C43)ns2)cc1C#N` (stereo not drawn) [Example 6], below 10 nM.
On to `CC(C)Oc1ccc(-c2nsc(-c3cccc4c3CC3CC(=O)N(CCO)C43)n2)cc1C#N` (stereo not drawn) [Example 7], for which the EC50 at S1P1 receptor was below 10 nM.
Same read-out and setting: in the case of `CC(C)Oc1ccc(-c2nc(-c3cccc4c3CC3CC(=O)N(CCC(=O)O)C43)no2)cc1C#N` (stereo not drawn) [Example 9] it was below 10 nM; in that of `CC(C)Oc1ccc(-c2nc(-c3cccc4c3CC3CC(=O)N(CCCC(=O)O)C43)no2)cc1C#N` (stereo not drawn) [Example 10], below 10 nM; in that of `CC(C)Oc1ccc(-c2nc(-c3cccc4c3CC3CC(=O)N(CCCCC(=O)O)C43)no2)cc1C#N` (stereo not drawn) [Example 11], below 10 nM.
At S1P1 receptor, `COCCN1C(=O)CC2Cc3c(-c4noc(-c5ccc(OC(C)C)c(C#N)c5)n4)cccc3C21` (stereo not drawn) [Example 12] came in with an EC50 below 10 nM.
Still for that read-out and setting: in the case of `CC(C)Oc1ccc(-c2nc(-c3cccc4c3CC3CC(=O)N(CCS(C)(=O)=O)C43)no2)cc1C#N` (stereo not drawn) [Example 13] it was below 10 nM.
For the compound `CC(C)Oc1ccc(-c2nc(-c3cccc4c3CC3CC(=O)N(CC(O)CO)C43)no2)cc1C#N` (stereo not drawn) [Example 14], the EC50 on S1P1 receptor was below 10 nM. Further, in data set [1], the clearance is 7.22 mL/min/kg, the AUC stood at 5.76 µM·h, the half-life was 3.27 h and the bioavailability came out at 59%.
For the compound `CC(C)Oc1ccc(-c2nc(-c3cccc4c3CC3CC(=O)N(CC(=O)N(C)C)C43)no2)cc1C#N` (stereo not drawn) [Example 15], the EC50 at S1P1 receptor lay within 10 to 100 nM.
On S1P1 receptor, `O=C1CC2Cc3c(-c4noc(-c5ccc(OC(F)F)cc5)n4)cccc3C2N1CCO` (stereo not drawn) [Example 16] registered an EC50 above 100 nM.
In the case of `N#Cc1cccc(-c2nc(-c3cccc4c3CC3CC(=O)N(CCO)C43)no2)c1` (stereo not drawn) [Example 17], the half-maximal effective concentration (EC50) at S1P1 receptor was above 100 nM.
The same measure, in the same setting: in the case of `COc1ccc(-c2nc(-c3cccc4c3CC3CC(=O)N(CCO)C43)no2)cc1` (stereo not drawn) [Example 18] it was above 100 nM; in that of `O=C1CC2Cc3c(-c4noc(-c5ccc(OC(F)(F)F)cc5)n4)cccc3C2N1CCO` (stereo not drawn) [Example 19], above 100 nM; in that of `CC(C)Oc1cccc(-c2nc(-c3cccc4c3CC3CC(=O)N(CCO)C43)no2)c1` (stereo not drawn) [Example 20], above 100 nM.
`O=C1CC2Cc3c(-c4noc(-c5ccc(OC6CC6)cc5)n4)cccc3C2N1CCO` (stereo not drawn) [Example 21]: the EC50 on S1P1 receptor was above 100 nM.
`CC(C)Oc1ccccc1-c1nc(-c2cccc3c2CC2CC(=O)N(CCO)C32)no1` (stereo not drawn) [Example 22] displayed an EC50 at S1P1 receptor above 100 nM.
On S1P1 receptor, `O=C1CC2Cc3c(-c4noc(-c5ccc(OCC6CC6)cc5)n4)cccc3C2N1CCO` (stereo not drawn) [Example 23] displayed a half-maximal effective concentration (EC50) above 100 nM.
Turning to `COCOc1ccc(-c2nc(-c3cccc4c3CC3CC(=O)N(CCO)C43)no2)cc1` (stereo not drawn) [Example 24], the EC50 on S1P1 receptor was above 100 nM.
The compound `CC(C)Oc1ccc(-c2nc(-c3cccc4c3CC3CC(=O)N(CCO)C43)no2)cc1Br` (stereo not drawn) [Example 25] gave a concentration giving a half-maximal response (EC50) at S1P1 receptor below 10 nM.
`CC(C)Oc1ccc(-c2nc(-c3cccc4c3CC3CC(=O)N(CCO)C43)no2)cc1Cl` (stereo not drawn) [Example 26] showed a half-maximal effective concentration (EC50) at S1P1 receptor below 10 nM. Besides, in data set [1], the clearance is 7.5 mL/min/kg, the AUC turned out to be 4.35 µM·h, the half-life is 26.7 h and the bioavailability was found to be 88.2%.
On to `CC(C)Oc1ccc(-c2nc(-c3cccc4c3CC3CC(=O)N(CCO)C43)no2)cc1C(F)F` (stereo not drawn) [Example 27], for which, at S1P1 receptor, the EC50 was below 10 nM. In data set [1], the clearance was found to be 8.86 mL/min/kg, the AUC was 4.78 µM·h, the half-life was 21.2 h and the bioavailability turned out to be 92.6%.
`CN(C)CCOc1ccc(-c2nc(-c3cccc4c3CC3CC(=O)N(CCO)C43)no2)cc1` (stereo not drawn) [Example 28] gave a concentration giving a half-maximal response (EC50) on S1P1 receptor above 100 nM.
For the compound `Cc1nc(C)c(-c2nc(-c3cccc4c3CC3CC(=O)N(CCO)C43)no2)o1` (stereo not drawn) [Example 29], on S1P1 receptor, the 50% effective concentration (EC50) was above 100 nM.
Regarding `CCCc1nnsc1-c1nc(-c2cccc3c2CC2CC(=O)N(CCO)C32)no1` (stereo not drawn) [Example 30], the EC50 on S1P1 receptor was above 100 nM.
The same measure, in the same setting: in the case of `O=C1CC2Cc3c(-c4noc(-c5nc6ccccn6c5F)n4)cccc3C2N1CCO` (stereo not drawn) [Example 31] it was above 100 nM; in that of `O=C1CC2Cc3c(-c4noc(-c5csc(-c6ccccc6)n5)n4)cccc3C2N1CCO` (stereo not drawn) [Example 32], above 100 nM; in that of `CN1CCc2nc(-c3nc(-c4cccc5c4CC4CC(=O)N(CCO)C54)no3)sc2C1` (stereo not drawn) [Example 33], above 100 nM.
Consider `CC(C)c1ncc(-c2nc(-c3cccc4c3CC3CC(=O)N(CCO)C43)no2)s1` (stereo not drawn) [Example 34], for which the concentration for a half-maximal effect (EC50) at S1P1 receptor is above 100 nM.
With `O=C1CC2Cc3c(-c4noc(-c5cnc6ncccn56)n4)cccc3C2N1CCO` (stereo not drawn) [Example 35 Compound 35-2], the half-maximal effective concentration (EC50) at S1P1 receptor is above 100 nM.
As to `O=C1CC2Cc3c(-c4noc(-c5cn6cccnc6n5)n4)cccc3C2N1CCO` (stereo not drawn) [Example 35 Compound 35-3], the EC50 at S1P1 receptor is above 100 nM.
The compound `O=C1CC2Cc3c(-c4noc(-c5cn6c(n5)CCCC6)n4)cccc3C2N1CCO` (stereo not drawn) [Example 36] came in with an EC50 at S1P1 receptor above 100 nM.
Still for that read-out and setting: in the case of `O=C1CC2Cc3c(-c4noc(-c5cc(-c6nccs6)on5)n4)cccc3C2N1CCO` (stereo not drawn) [Example 37] it was above 100 nM; in that of `O=C1CC2Cc3c(-c4noc(-c5cn(Cc6ccccc6)nn5)n4)cccc3C2N1CCO` (stereo not drawn) [Example 38], above 100 nM; in that of `CC(C)Oc1ccc(-c2nc(-c3cccc4c3CC3CC(=O)N(CCO)C43)no2)cc1` (stereo not drawn) [Example 39], 10 to 100 nM.
On to `CC(C)Oc1ccc(-c2nc(-c3cccc4c3CC3CC(=O)N(CCO)C43)no2)cc1OCCN(C)C` (stereo not drawn) [Example 41], for which, at S1P1 receptor, the EC50 was above 100 nM.
On the same count and under the same terms, in the case of `CC(C)Oc1ccc(-c2nc(-c3cccc4c3CC3CC(=O)N(CCO)C43)no2)c(C#N)c1` (stereo not drawn) [Example 42] it was above 100 nM; in that of `CC(C)Oc1ccc(-c2nc(-c3cccc4c3CC3CC(=O)N(CCO)C43)no2)cc1S(C)(=O)=O` (stereo not drawn) [Example 43], 10 to 100 nM.
With `COc1cc(-c2nc(-c3cccc4c3CC3CC(=O)N(CCO)C43)no2)cc(C2CCCC2)n1` (stereo not drawn) [Example 44], at S1P1 receptor, the EC50 lay within 10 to 100 nM.
The same measure, in the same setting: in the case of `CC(C)Oc1ccc(-c2nc(-c3cccc4c3CC3CCC(=O)N(CCO)C43)no2)cc1C#N` (stereo not drawn) [Example 45] it was below 10 nM; in that of `CC(C)Oc1ccc(-c2nc(-c3cccc4c3CCC3CC(=O)N(CCO)C43)no2)cc1C#N` (stereo not drawn) [Example 46], below 10 nM; in that of `CC(C)Oc1ccc(-c2nc(-c3cccc4c3CC3CC(=O)N(CCOS(=O)(=O)O)[C@H]43)no2)cc1C#N` (stereo partly drawn) [Example 47], below 10 nM.
`CC(C)Oc1ccc(-c2nc(-c3cccc4c3CC3CCN(CCO)C43)no2)cc1C#N` (stereo not drawn) [Example 49]: the EC50 on S1P1 receptor lay in the range of 10 to 100 nM.
The compound `CC(C)Oc1ccc(-c2nnc(-c3cccc4c3C[C@@H]3CC(=O)N(CCO)[C@H]43)o2)cc1C#N` [Example 51] yielded an EC50 at S1P1 receptor below 10 nM.
Compound `CC(C)Oc1ccc(-c2nc(-c3cccc4c3CC3CCN(CC(=O)O)C43)no2)cc1C#N` (stereo not drawn) [Example 52] gave an EC50 at S1P1 receptor below 10 nM.
`CC(C)Oc1ccc(-c2nc(-c3cccc4c3C[C@@H]3CCN(C5CC(C(=O)O)C5)C43)no2)cc1C#N` (stereo partly drawn) [Example 53]: on S1P1 receptor, the concentration giving a half-maximal response (EC50) was below 10 nM.
On the same count and under the same terms, as for `CC(C)Oc1ccc(-c2nc(-c3cccc4c3CC3CC(=O)N(CCO)[C@H]43)n[nH]2)cc1C#N` (stereo partly drawn) [Example 54], the figure is 10 to 100 nM.
Turning to `CC(C)Oc1ccc(-c2nc(-c3cccc4c3C[C@@H]3CC(=O)N([C@@H](CO)C(C)C)C43)no2)cc1C#N` (stereo partly drawn) [Example 55], at S1P1 receptor, the EC50 lay in the range of 10 to 100 nM.
